Data set [1] concerns hormone receptor-positive metastatic breast cancer. The note with it: cited from earlier work.
Data set [2] concerns PIK3CA/AKT1/PTEN-altered metastatic TNBC. To be noted: cited from earlier work.
A short description of data set [3]: Plasma pharmacokinetics, phase I, cycle 1. It counts as in vivo, human. To be noted: 13 patients, with nab-paclitaxel.
In data set [4] the test system is patients with HER2-negative metastatic breast cancer. Description: Treatment-related adverse events. It counts as in vivo, human. To be noted: 11/43; N=1 at 250mg, N=10 at 350mg.
Data set [5] relates to PI3Kα isoform (both wild-type and mutated p110α). To be noted: cited from earlier work.
Data set [6] has as its system other class I isoforms β, δ, and γ. To be noted: cited from earlier work.
Data set [7] relates to patients with HER2-negative metastatic breast cancer. It counts as in vivo.

On to `NC1(C(=O)N[C@@H](CCO)c2ccc(Cl)cc2)CCN(c2ncnc3[nH]ccc23)CC1` [capivasertib], for which the “PFS with addition to fulvestrant” value in data set [1] is given as “improvement in PFS”.

Take `CC(C)NC[C@@H](C(=O)N1CCN(c2ncnc3c2[C@H](C)C[C@H]3O)CC1)c1ccc(Cl)cc1` [ipatasertib]: the “PFS with addition to first-line paclitaxel” value in data set [2] was “failed to show improvement in PFS”.

With `Cc1nc(NC(=O)N2CCC[C@H]2C(N)=O)sc1-c1ccnc(C(C)(C)C(F)(F)F)c1` [alpelisib], in data set [3], the “Tmax, Cmax, and AUC (0–8 hrs) of alpelisib” value was “consistent with previous published reports”. For the same compound, the “Alpelisib dose reduction required, patients” value in data set [4] came to 26%. Further, the “inhibition of PI3Kα isoform” value in data set [5] is “selectively inhibits PI3Kα isoform”. Further, in data set [6], the “activity against the other class I isoforms β, δ, and γ” value is on record as “significantly less active”. Moreover, in data set [7] (in combination with nab-paclitaxel 100mg/m^2 D1,8,15), the MTD of alpelisib entry is “not reached”. Further, the RP2D of alpelisib in data set [7] (orally daily, in combination with nab-paclitaxel 100mg/m^2 D1,8,15 every 28 days) came out at 350 mg.

Source of the values: publication PMC8282704 (Clinical cancer research : an official journal of the …, 2021).
